Starred links: 1 amine or outer side, 2 acyl side, 3 side chain; linkers in the order of their positions; H or OH if unused. Positions of bridges follow the written chain, without caps; N, C: chain ends. Non-standard residues stand in square brackets, D forms with d. Residues, ends and D or L forms follow the SMILES beside them. Ala(1-CH2CO2H-4-piperidyl) = N[C@@H](CC1CCN(CC(=O)O)CC1)C(=O)O; Phe(3-OCH2COOH) = N[C@@H](Cc1cccc(OCC(=O)O)c1)C(=O)O; Phe(4-COOH) = N[C@@H](Cc1ccc(C(=O)O)cc1)C(=O)O; Gly(Nα-CH2CH2CONH2) = NC(=O)CCNCC(=O)O; Gly(N(CH2)3COOH) = O=C(O)CCCNCC(=O)O; X1 = CCCCCCC[C@H](N[*:1])C(=O)[*:2]; NMeF = CN[C@@H](Cc1ccccc1)C(=O)O; 4Pal = N[C@@H](Cc1ccncc1)C(=O)O; Ahp(2) = CCCCC[C@H](N)C(=O)O; NMeA = CN[C@@H](C)C(=O)O; Sar = CNCC(=O)O
Columns and labels:
[1] = molecular target: T1, Myostatin (Homo sapiens, UniProt O14793); experiment: HepG2 reporter gene assay, Evaluation Procedure (2): 2-concentrations assay, myostatin inhibition; assay type: cell-based; settings: Myostatin 10 ng/mL, HepG2; for inhibition at 0.03 µM: peptide 30nM, read-out: Myostatin Inhibition 30nM; for inhibition at 0.1 µM: peptide 100nM, read-out: Myostatin Inhibition 100nM
T1 construct: active myostatin (also called mature myostatin) is a homodimer consisting of two C-terminal growth factor domains; purchased R&D systems 788-G8/CF
T1 sequence (O14793 267-375): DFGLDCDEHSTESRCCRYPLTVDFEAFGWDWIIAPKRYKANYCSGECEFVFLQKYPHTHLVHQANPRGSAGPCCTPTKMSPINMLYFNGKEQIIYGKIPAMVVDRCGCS
In short: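 Myostatin inhibition was measured in a luciferase reporter assay using HepG2 cells transfected with a pGL3 vector containing 12 CAGA repeats upstream of luciferase. After 20 to 24 hours with 10 ng/mL myostatin, cells received One-Glo:PBS (1:1) at 100 µL/well, were shaken for 5 min, and 20 µL/well was moved to 384-well plates and read on an Envision 2104.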

[2] = molecular target: T2, GDF-11 (Homo sapiens, UniProt O95390); experiment: HepG2 reporter gene assay, Evaluation Procedure (2): 2-concentrations assay, GDF-11 inhibition; assay type: cell-based; settings: GDF-11 10 ng/mL; for inhibition at 0.03 µM: HepG2, peptide 30nM, read-out: GDF11 Inhibition 30nM; for inhibition at 0.1 µM: HepG2, peptide 100nM, read-out: GDF11 Inhibition 100nM
T2 construct: purchased R&D systems 1958-GD-G8/CF
T2 sequence (O95390 299-407): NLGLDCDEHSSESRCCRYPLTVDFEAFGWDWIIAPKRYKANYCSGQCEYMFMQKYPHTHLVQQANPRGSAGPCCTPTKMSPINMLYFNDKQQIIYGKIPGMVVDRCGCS
In short: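 HepG2 cells carrying the transfected pGL3(CAGA)12-luc reporter, a pGL3 vector with luciferase placed downstream of 12 CAGA repeats, were stimulated with GDF-11 at a final 10 ng/mL together with test peptide. Blank wells received no GDF-11 and no peptide. Plates were incubated 20 to 24 hours at 37°C with 5% CO2. Luminescence from One-Glo substrate was read to calculate percent inhibition.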

inhibition at 0.03 µM [1] [%]	inhibition at 0.1 µM [1] [%]	inhibition at 0.03 µM [2] [%]	inhibition at 0.1 µM [2] [%]	SMILES
50	85	8	0	CCCCCCC[C@@H]1NC(=O)[C@H](Cc2ccccc2)N(C)C(=O)[C@H](CCCNC(=N)N)NC(=O)[C@H](Cc2ccc(C(=O)O)cc2)NC(=O)[C@H](CC2CCN(CC(=O)O)CC2)NC(=O)CN(C)C(=O)[C@H]([C@@H](C)CC)NC(=O)[C@H](Cc2ccccc2)N(C)C(=O)[C@H](Cc2ccc(O)cc2)NC(=O)[C@H](Cc2c[nH]c3ccccc23)NC(=O)[C@H](C)NC(=O)CN(CCCC(=O)O)C(=O)CSC[C@H](C(=O)O)NC(=O)[C@H](Cc2ccccc2)N(C)C(=O)[C@H](C)N(C)C1=O [Myostatin_99_v233] ({CH2CO}-[Gly(N(CH2)3COOH)]AWY[NMeF]I[Sar][Ala(1-CH2CO2H-4-piperidyl)][Phe(4-COOH)]R[NMeF][X1][NMeA][NMeF][dC]-OH; thioether N-15)
91	99	0	0	CCCCCCC[C@@H]1NC(=O)[C@H](Cc2ccccc2)N(C)C(=O)[C@H](CCCNC(=N)N)NC(=O)[C@H](Cc2ccc(C(=O)O)cc2)NC(=O)[C@H](Cc2ccncc2)NC(=O)CN(C)C(=O)[C@H]([C@@H](C)CC)NC(=O)[C@H](Cc2ccccc2)N(C)C(=O)[C@H](Cc2ccc(O)cc2)NC(=O)[C@H](Cc2c[nH]c3ccccc23)NC(=O)[C@H](C)NC(=O)CN(CCCC(=O)O)C(=O)CSC[C@H](C(=O)N[C@@H](CC2CCN(CC(=O)O)CC2)C(N)=O)NC(=O)[C@H](Cc2ccccc2)N(C)C(=O)[C@H](C)N(C)C1=O [Myostatin_99_v235] ({CH2CO}-[Gly(N(CH2)3COOH)]AWY[NMeF]I[Sar][4Pal][Phe(4-COOH)]R[NMeF][X1][NMeA][NMeF][dC][Ala(1-CH2CO2H-4-piperidyl)]-NH2; thioether N-15)
69	91	0	0	CCCCC[C@@H]1NC(=O)[C@H](Cc2ccccc2)N(C)C(=O)[C@H](CCCNC(=N)N)NC(=O)[C@H](Cc2ccc(C(=O)O)cc2)NC(=O)[C@H](Cc2cccc(OCC(=O)O)c2)NC(=O)CN(C)C(=O)[C@H]([C@@H](C)CC)NC(=O)[C@H](Cc2ccccc2)N(C)C(=O)[C@H](Cc2ccc(O)cc2)NC(=O)[C@H](Cc2c[nH]c3ccccc23)NC(=O)[C@H](C)NC(=O)[C@H](C)N(C)C(=O)CSC[C@H](C(=O)O)NC(=O)[C@H](Cc2ccccc2)N(C)C(=O)[C@H](C)N(C)C1=O [Myostatin_99_v240] ({CH2CO}-[NMeA]AWY[NMeF]I[Sar][Phe(3-OCH2COOH)][Phe(4-COOH)]R[NMeF][Ahp(2)][NMeA][NMeF][dC]-OH; thioether N-15)
18	58	0	0	CCCCC[C@@H]1NC(=O)[C@H](Cc2ccccc2)N(C)C(=O)[C@H](CCCNC(=N)N)NC(=O)[C@H](Cc2ccc(C(=O)O)cc2)NC(=O)[C@H](Cc2cccc(OCC(=O)O)c2)NC(=O)CN(C)C(=O)[C@H]([C@@H](C)CC)NC(=O)[C@H](Cc2ccccc2)N(C)C(=O)[C@H](Cc2ccc(O)cc2)NC(=O)[C@H](Cc2c[nH]c3ccccc23)NC(=O)[C@H](C)NC(=O)CN(CCC(N)=O)C(=O)CSC[C@H](C(=O)O)NC(=O)[C@H](Cc2ccccc2)N(C)C(=O)[C@H](C)N(C)C1=O [Myostatin_99_v242] ({CH2CO}-[Gly(Nα-CH2CH2CONH2)]AWY[NMeF]I[Sar][Phe(3-OCH2COOH)][Phe(4-COOH)]R[NMeF][Ahp(2)][NMeA][NMeF][dC]-OH; thioether N-15)

From patent EP4786487A1, “PEPTIDE” (Peptidream Inc, priority 2023, dated 2025)
